In US7288256B1, “T cell epitopes of the major allergens from dermatophagoides (house dust mite)” (Merck Patent GmbH, priority 1991, dated 2007):
Residues, ends and D or L forms follow the SMILES beside them.

Tests used:
[1] = pH-stability profile of candidate peptides (percent degradant peak area by HPLC); conditions: 3, 2 and 1 mg/ml per peptide; 24 hours at about 5° C. and about 22° C.; common window within pH 6 to pH 8
Procedure: The concentration of filtered peptide solutions was determined by HPLC analysis. In this experiment, the solubility of peptide at each pH is defined as the amount of peptide remaining in solution after filtration through a membrane filter having a 0.2 micrometer pore size. The extent of degradation of peptides was estimated by calculating the percent of total degradant peak area over the total peak area.

[2] = pH-solubility profile of candidate peptides (HPLC of filtrate); format: physicochemical; conditions: for solubility thermodynamic at 24 h: at a pH in the pH range of pH 6 to pH 8, 50 mM sodium phosphate, about 22° C.
Procedure: Stock solution A: 0.66 g […] of monobasic sodium phosphate monohydrate U.S.P. and 50 mg EDTA disodium dihydrate, U.S.P. were dissolved in 100 mL of WFI. The solution was filtered through a 0.2 micron filter
Stock solution B: 0.71 g […] of dibasic sodium phosphate U.S.P. were disolved in 100 ml WFI. The solution was filtered through a 0.2 micron filter.
Dispersions A and B were sonicated for 2 minutes for good homogeneity. A small volume was pipetted from each dispersion into a labeled eppendoff vial according to the following volume ratio:
The resultant solutions/suspensions were stored in the dark at about 22° C.±2 for 24 hours without agitation. The solutions were filtered and filtrates were analyzed for pH and peptide concentration.

SMILES | solution stability in equal concentration combination [1] | solubility thermodynamic at 24 h [2] | solubility (in words, against the superior solubility standard of 3 mg/ml) ([2]; development of DPII-22.14 from DpII-22)
CC(C)C[C@H](NC(=O)[C@H](CCC(=O)O)NC(=O)[C@H](CCCCN)NC(=O)[C@@H](N)CC(=O)O)C(=O)N[C@@H](CCC(=O)O)C(=O)N[C@@H](C)C(=O)N[C@H](C(=O)N[C@@H](Cc1ccccc1)C(=O)N[C@@H](CCC(=O)O)C(=O)N[C@@H](C)C(=O)N[C@@H](CC(N)=O)C(=O)N[C@@H](CCC(N)=O)C(=O)N[C@@H](CC(N)=O)C(=O)N[C@H](C(=O)N[C@@H](CCCCN)C(=O)N[C@H](C(=O)N[C@@H](C)C(=O)N[C@@H](CCCCN)C(=O)N[C@@H](C)C(=O)N[C@@H](CCC(=O)O)C(=O)O)[C@@H](C)O)[C@@H](C)O)C(C)C [DP II-22.14] (H-DKELEAVFEANQNTKTAKAE-OH; N-terminus and C-terminus assumed) | acceptable solution stability | > 3000 µg/mL | –
CC[C@H](C)[C@H](NC(=O)[C@H](C)NC(=O)[C@H](CS)NC(=O)[C@H](C)NC(=O)[C@H](CC(C)C)NC(=O)[C@@H](NC(=O)CNC(=O)[C@H](CC(=O)O)NC(=O)[C@H](CC(=O)O)NC(=O)CNC(=O)[C@H](CCSC)NC(=O)[C@@H](NC(=O)[C@H](CCCCN)NC(=O)[C@@H](NC(=O)[C@@H](NC(=O)[C@H](CCC(=O)O)NC(=O)[C@H](CCC(=O)O)NC(=O)[C@@H](N)CC(=O)O)[C@@H](C)O)C(C)C)C(C)C)C(C)C)C(=O)N[C@@H](C)C(=O)N[C@H](C(=O)N[C@@H](Cc1c[nH]cn1)C(=O)N[C@@H](C)C(=O)N[C@@H](CCCCN)C(=O)N[C@H](C(=O)N[C@@H](CCCNC(=N)N)C(=O)N[C@@H](CC(=O)O)C(=O)N[C@@H](CCC(=O)O)C(=O)N[C@@H](CCC(=O)O)C(=O)O)[C@@H](C)CC)[C@@H](C)O [DP II-25.15] (H-DEETVKVMGDDGVLACAIATHAKIRDEE-OH; N-terminus and C-terminus assumed) | acceptable solution stability | > 3000 µg/mL | –
CC[C@H](C)[C@H](NC(=O)[C@H](CCC(=O)O)NC(=O)[C@@H](NC(=O)[C@H](CCCCN)NC(=O)[C@H](C)NC(=O)[C@@H](NC(=O)[C@H](CCCCN)NC(=O)[C@@H](NC(=O)[C@H](CC(N)=O)NC(=O)[C@H](CCC(N)=O)NC(=O)[C@H](CC(N)=O)NC(=O)[C@H](C)NC(=O)[C@H](CCC(=O)O)NC(=O)[C@H](Cc1ccccc1)NC(=O)[C@@H](NC(=O)[C@H](C)NC(=O)[C@H](CCC(=O)O)NC(=O)[C@H](CC(C)C)NC(=O)[C@H](CCC(N)=O)NC(=O)[C@H](CCCCN)NC(=O)[C@@H](N)CC(=O)O)C(C)C)[C@@H](C)O)[C@@H](C)O)[C@@H](C)CC)C(=O)N[C@@H](CCCCN)C(=O)N[C@@H](C)C(=O)N[C@@H](CO)C(=O)N[C@H](C(=O)N[C@@H](CC(=O)O)C(=O)N[C@@H](CCC(=O)O)C(=O)O)[C@@H](C)CC [DP II-22.5] (H-DKQLEAVFEANQNTKTAKIEIKASIDE-OH; N-terminus and C-terminus assumed) | – | – | very soluble
CC(C)[C@H](NC(=O)CNC(=O)[C@H](CCC(=O)O)NC(=O)[C@H](CCC(=O)O)NC(=O)[C@@H](N)CC(=O)O)C(=O)N[C@H](C(=O)N[C@@H](CCC(N)=O)C(=O)N[C@@H](CCC(=O)O)C(=O)N[C@@H](CO)C(=O)N[C@@H](Cc1ccc(O)cc1)C(=O)N[C@@H](Cc1ccc(O)cc1)C(=O)N[C@@H](CCCNC(=N)N)C(=O)N[C@@H](Cc1ccc(O)cc1)C(=O)N[C@H](C(=O)N[C@@H](C)C(=O)N[C@@H](CCCNC(=N)N)C(=O)N[C@@H](CCC(=O)O)C(=O)N[C@@H](CCC(N)=O)C(=O)N[C@@H](CO)C(=O)N[C@@H](CS)C(=O)N[C@@H](CCCNC(=N)N)C(=O)N[C@@H](CCCNC(=N)N)C(=O)N1CCC[C@H]1C(=O)N[C@@H](CC(N)=O)C(=O)N[C@@H](C)C(=O)N[C@@H](CCC(=O)O)C(=O)O)C(C)C)C(C)C [DP I-23.31] (H-DEEGVVQESYYRYVAREQSCRRPNAE-OH; N-terminus and C-terminus assumed) | acceptable solution stability | > 3000 µg/mL | –
